Reference: patent publication US20250011404A1, “TARGETING APOE ENHANCES T-CELL KILLING IN CANCER IMMUNOTHERAPY” (Children's National Medical Center, priority 2021, published 2025)

System: mouse apoE gene
Assay: gRNA screening by next generation sequencing for INDEL frequency in B16-F10 cells
Type: cell-based
Conditions: RNP electroporated into B16-F10 cells; NGS
Experimental: Six guide RNAs (gRNAs) were designed using IDT's gRNA design tool, targeting the mouse apoE gene. gRNAs were synthesized as 2-part crRNA: tracrRNA gRNAs with chemical modifications (Integrated DNA Technologies, Inc., IA) and were functionally screened by next generation sequencing (NGS) for high INDEL (insertion/deletion) frequency and low in-frame INDEL rates. gRNAs were prepared by complexing a 1:1 molar ratio of the crRNA: tracrRNA at a final concentration of 100 μM, heating to 95° C. and slowly cooling to room temperature. […]
The electroporated cells were plated in 1 well of a 6-well plate and allowed to grow until confluent. The cells were then dissociated by trypsinization, resuspended in media, and counted. […] The genomic DNA from each well was subject to quantification of total editing and analysis of INDEL profile by NGS to confirm a monoclonal isolate.
Genomic DNA libraries for sequencing were prepared using IDT rhAmpSeq targeted amplification. […] Libraries were purified using Agencourt® AMPure® XP system (Beckman Coulter, Brea, CA, USA) with a 1:1 ratio of beads to reaction by volume and quantified with quantitative real-time PCR (qPCR) before loading onto the Illumina® MiSeq platform (Illumina, San Diego, CA, USA). Paired end 150 base pair reads were sequenced using V2 chemistry. A sequencing depth of at least 1000 reads was obtained for each sample. […]

Which INDEL frequency does the source give for “GGACACTATGACGGAAGTAA (listed as DNA, chemistry not given here) [Mm. Cas9.APOE.1-E]” here?
The INDEL frequency was 99%.

And the “in-frame INDELs” value?
Its value is “no”.
